Laboratory results published in PubChem BioAssay (NCI).
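All cell lines were grown in 96-well plates and treated with compound for 48 hours. Here, GI50 denotes the concentration required for 50% inhibition of growth. TGI is the concentration that stops growth completely.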

Key:
Experiment in all cases: NCI-60 cell line screen, 48 h
K-562 leukemia = system: K-562 leukemia
TK-10 renal = system: TK-10 renal
MDA-MB-435 = system: MDA-MB-435
KM12 colon = system: KM12 colon
NCI-H226 lung = system: NCI-H226 lung
UACC-257 melanoma = system: UACC-257 melanoma
HCC-2998 colon = system: HCC-2998 colon
SK-MEL-5 melanoma = system: SK-MEL-5 melanoma
CCRF-CEM leukemia = system: CCRF-CEM leukemia
SR leukemia = system: SR leukemia

In the case of `CCN(CC)CC(C)(C)C(=O)/C=C/c1ccc(Cl)c(Cl)c1`, the GI50 (K-562 leukemia) was 1.1 µM, the TGI (K-562 leukemia) was 6.29 µM and the GI50 (TK-10 renal) was 1.67 µM. For the same molecule, the TGI (TK-10 renal) was 3.04 µM, the GI50 (MDA-MB-435) was 1.6 µM and the TGI (MDA-MB-435) was 3.28 µM. The GI50 (KM12 colon) was 1.67 µM, the TGI (KM12 colon) was 3.28 µM and the GI50 (NCI-H226 lung) was 1.71 µM. The TGI (NCI-H226 lung) was 3.35 µM, the GI50 (UACC-257 melanoma) was 2.07 µM and the TGI (UACC-257 melanoma) was 3.64 µM. The GI50 (HCC-2998 colon) was 1.61 µM, the TGI (HCC-2998 colon) was 3.08 µM and the GI50 (SK-MEL-5 melanoma) was 1.84 µM. For the same molecule, the TGI (SK-MEL-5 melanoma) was 3.29 µM, the GI50 (CCRF-CEM leukemia) was 1.14 µM and the TGI (CCRF-CEM leukemia) was 4.22 µM. The GI50 (SR leukemia) was 1.75 µM and the TGI (SR leukemia) was 8.91 µM.

In the case of `N#CC1(C2SCCS2=O)C2=C(C(=O)c3ccccc3C2=O)N2CCCC21` (configuration not stated), the TGI (K-562 leukemia) was 25.7 µM, the TGI (TK-10 renal) was 43.7 µM and the TGI (MDA-MB-435) was 1.3 µM. For the same molecule, the TGI (KM12 colon) was 13.1 µM, the TGI (NCI-H226 lung) was 10.7 µM and the TGI (UACC-257 melanoma) was 2.99 µM. For the same molecule, the TGI (HCC-2998 colon) was 11.8 µM, the TGI (SK-MEL-5 melanoma) was 1.1 µM and the TGI (CCRF-CEM leukemia) was 24.5 µM. The TGI (SR leukemia) was 20.7 µM.

`CCN(CC)CCOc1ccc(/C(=C(\C)c2ccc(F)c(OC)c2)c2ccc(Cl)cc2)cc1` gave a GI50 (K-562 leukemia) of 0.855 µM, a TGI (K-562 leukemia) of 6 µM and a GI50 (TK-10 renal) of 2.56 µM. For the same molecule, the TGI (TK-10 renal) was 5.31 µM, the GI50 (MDA-MB-435) was 2.43 µM and the TGI (MDA-MB-435) was 4.61 µM. It also gave a GI50 (KM12 colon) of 2.27 µM, a TGI (KM12 colon) of 4.73 µM and a GI50 (NCI-H226 lung) of 2.53 µM. For the same molecule, the TGI (NCI-H226 lung) was 5.14 µM, the GI50 (UACC-257 melanoma) was 2.18 µM and the TGI (UACC-257 melanoma) was 4.67 µM. It also gave a GI50 (HCC-2998 colon) of 2.17 µM, a TGI (HCC-2998 colon) of 4.36 µM and a GI50 (SK-MEL-5 melanoma) of 2.81 µM. For the same molecule, the TGI (SK-MEL-5 melanoma) was 5.21 µM, the GI50 (CCRF-CEM leukemia) was 2.96 µM and the TGI (CCRF-CEM leukemia) was 8.55 µM. For the same molecule, the GI50 (SR leukemia) was 2.01 µM and the TGI (SR leukemia) was 6.91 µM.

With `Nc1nc(Cl)cc(NCCO)n1` the TGI (K-562 leukemia) was > 100 µM, the TGI (TK-10 renal) was > 100 µM and the TGI (MDA-MB-435) was > 100 µM. The TGI (KM12 colon) was > 100 µM, the TGI (NCI-H226 lung) was > 100 µM and the TGI (UACC-257 melanoma) was > 100 µM. The TGI (HCC-2998 colon) was > 100 µM, the TGI (SK-MEL-5 melanoma) was > 100 µM and the TGI (SR leukemia) was > 100 µM.

`Cc1[nH]n(-c2cccc(Cl)c2)c(=O)c1/C=C1\C=Nc2ccc(Br)cc21` gave a GI50 (TK-10 renal) of 2.6 µM, a TGI (TK-10 renal) of 5.18 µM and a GI50 (MDA-MB-435) of 6.78 µM. The TGI (MDA-MB-435) was > 100 µM, the GI50 (KM12 colon) was 6.65 µM and the TGI (KM12 colon) was > 100 µM. The GI50 (NCI-H226 lung) was 5.81 µM, the TGI (NCI-H226 lung) was 28.5 µM and the GI50 (UACC-257 melanoma) was 85.7 µM. For the same molecule, the TGI (UACC-257 melanoma) was > 100 µM, the GI50 (HCC-2998 colon) was 14.3 µM and the TGI (HCC-2998 colon) was > 100 µM. The GI50 (SK-MEL-5 melanoma) was 9.48 µM, the TGI (SK-MEL-5 melanoma) was > 100 µM and the GI50 (CCRF-CEM leukemia) was 2.95 µM. It also gave a TGI (CCRF-CEM leukemia) of 9.84 µM, a GI50 (SR leukemia) of 1.88 µM and a TGI (SR leukemia) of 3.99 µM.

`NC(=O)C(=CNc1nc(-c2ccc(Cl)c(Cl)c2)cs1)C(N)=O` was tested, and the GI50 (K-562 leukemia) was 75.8 µM, the TGI (K-562 leukemia) was > 100 µM and the GI50 (TK-10 renal) was > 100 µM. The TGI (TK-10 renal) was > 100 µM, the GI50 (MDA-MB-435) was 48.2 µM and the TGI (MDA-MB-435) was > 100 µM. For the same molecule, the GI50 (KM12 colon) was > 100 µM, the TGI (KM12 colon) was > 100 µM and the GI50 (NCI-H226 lung) was > 100 µM. The TGI (NCI-H226 lung) was > 100 µM, the GI50 (UACC-257 melanoma) was > 100 µM and the TGI (UACC-257 melanoma) was > 100 µM. For the same molecule, the GI50 (HCC-2998 colon) was > 100 µM, the TGI (HCC-2998 colon) was > 100 µM and the GI50 (SK-MEL-5 melanoma) was 71.6 µM. For the same molecule, the TGI (SK-MEL-5 melanoma) was > 100 µM, the GI50 (CCRF-CEM leukemia) was 20.4 µM and the TGI (CCRF-CEM leukemia) was > 100 µM. For the same molecule, the GI50 (SR leukemia) was 38.7 µM and the TGI (SR leukemia) was > 100 µM.

In the case of `O=C(CCCN1CC=C(n2c(=O)[nH]c3ccccc32)CC1)c1ccc(F)cc1`, the GI50 (K-562 leukemia) was 29.3 µM, the TGI (K-562 leukemia) was > 100 µM and the GI50 (TK-10 renal) was 87 µM. For the same molecule, the TGI (TK-10 renal) was > 100 µM, the GI50 (MDA-MB-435) was 18.1 µM and the TGI (MDA-MB-435) was 49.5 µM. The GI50 (KM12 colon) was 30.7 µM, the TGI (KM12 colon) was > 100 µM and the GI50 (NCI-H226 lung) was 25.5 µM. For the same molecule, the TGI (NCI-H226 lung) was > 100 µM, the GI50 (UACC-257 melanoma) was 60.2 µM and the TGI (UACC-257 melanoma) was > 100 µM. The GI50 (HCC-2998 colon) was 48 µM, the TGI (HCC-2998 colon) was > 100 µM and the GI50 (SK-MEL-5 melanoma) was 14.9 µM. For the same molecule, the TGI (SK-MEL-5 melanoma) was 28.6 µM, the GI50 (CCRF-CEM leukemia) was 35.5 µM and the TGI (CCRF-CEM leukemia) was > 100 µM. It also gave a GI50 (SR leukemia) of 29.6 µM and a TGI (SR leukemia) of 89.1 µM.

In the case of `CC(=O)Oc1ccccc1C(=O)N=C1[Se]CCN1C(=O)c1ccccc1OC(C)=O`, the GI50 (K-562 leukemia) was 0.94 µM, the TGI (K-562 leukemia) was > 100 µM and the GI50 (TK-10 renal) was 0.491 µM. For the same molecule, the TGI (TK-10 renal) was 1.87 µM, the GI50 (MDA-MB-435) was 0.462 µM and the TGI (MDA-MB-435) was 1.87 µM. The GI50 (KM12 colon) was 1.1 µM, the TGI (KM12 colon) was > 100 µM and the GI50 (UACC-257 melanoma) was 1.02 µM. It also gave a TGI (UACC-257 melanoma) of 3.2 µM, a GI50 (HCC-2998 colon) of 2.15 µM and a TGI (HCC-2998 colon) of 5.79 µM. It also gave a GI50 (SK-MEL-5 melanoma) of 0.566 µM, a TGI (SK-MEL-5 melanoma) of 2.05 µM and a GI50 (CCRF-CEM leukemia) of 0.556 µM. For the same molecule, the TGI (CCRF-CEM leukemia) was > 100 µM, the GI50 (SR leukemia) was 1.51 µM and the TGI (SR leukemia) was > 100 µM.

In the case of `C#C[C@]1(O)CC[C@H]2[C@@H]3CC=C4c5sc(Nc6ccccc6)nc5CC[C@]4(C)[C@H]3CC[C@@]21C`, the GI50 (K-562 leukemia) was 1.86 µM, the TGI (K-562 leukemia) was > 100 µM and the GI50 (TK-10 renal) was 3.79 µM. The TGI (TK-10 renal) was 13.2 µM, the GI50 (MDA-MB-435) was 3 µM and the TGI (MDA-MB-435) was 11.2 µM. For the same molecule, the GI50 (KM12 colon) was 2.66 µM, the TGI (KM12 colon) was 12.7 µM and the GI50 (NCI-H226 lung) was 2.55 µM. The TGI (NCI-H226 lung) was 7.59 µM, the GI50 (UACC-257 melanoma) was 2.46 µM and the TGI (UACC-257 melanoma) was 8.6 µM. It also gave a GI50 (HCC-2998 colon) of 1.91 µM, a TGI (HCC-2998 colon) of 4.22 µM and a GI50 (SK-MEL-5 melanoma) of 1.72 µM. It also gave a TGI (SK-MEL-5 melanoma) of 3.26 µM, a GI50 (CCRF-CEM leukemia) of 1.1 µM and a TGI (CCRF-CEM leukemia) of 11.3 µM. For the same molecule, the GI50 (SR leukemia) was 0.623 µM and the TGI (SR leukemia) was > 100 µM.

In the case of `CSC1(CC(=O)N(C)C)C(=O)Nc2ccccc21` (configuration not stated), the TGI (K-562 leukemia) was > 100 µM, the TGI (TK-10 renal) was > 100 µM and the TGI (MDA-MB-435) was > 100 µM. The TGI (KM12 colon) was > 100 µM, the TGI (NCI-H226 lung) was > 100 µM and the TGI (UACC-257 melanoma) was > 100 µM. The TGI (HCC-2998 colon) was > 100 µM, the TGI (SK-MEL-5 melanoma) was > 100 µM and the TGI (SR leukemia) was > 100 µM.

In the case of `Cc1ccc(N(CSc2ccc(Cl)cc2)CSc2ccc(Cl)cc2)cc1`, the GI50 (TK-10 renal) was 4.88 µM, the TGI (TK-10 renal) was > 100 µM and the GI50 (MDA-MB-435) was 0.927 µM. For the same molecule, the TGI (MDA-MB-435) was 9.38 µM, the GI50 (KM12 colon) was 0.51 µM and the TGI (KM12 colon) was 12.5 µM. The GI50 (NCI-H226 lung) was 1.09 µM, the TGI (NCI-H226 lung) was 2.45 µM and the GI50 (UACC-257 melanoma) was 3.72 µM. For the same molecule, the TGI (UACC-257 melanoma) was > 100 µM, the GI50 (HCC-2998 colon) was 2.57 µM and the TGI (HCC-2998 colon) was 11.7 µM. It also gave a GI50 (SK-MEL-5 melanoma) of 1.18 µM, a TGI (SK-MEL-5 melanoma) of 2.5 µM and a GI50 (CCRF-CEM leukemia) of 0.246 µM. For the same molecule, the TGI (CCRF-CEM leukemia) was 2.5 µM, the GI50 (SR leukemia) was 1.04 µM and the TGI (SR leukemia) was 4.86 µM.
